Test results reported in publication PMC7385938 (Cell Stress & Chaperones, 2020).

Biological target: HSPA5-FL (Homo sapiens, UniProt P11021)
Assay: ITC, liposomes titrated into protein
Type: binding

Sequence of HSPA5-FL (P11021 25-654): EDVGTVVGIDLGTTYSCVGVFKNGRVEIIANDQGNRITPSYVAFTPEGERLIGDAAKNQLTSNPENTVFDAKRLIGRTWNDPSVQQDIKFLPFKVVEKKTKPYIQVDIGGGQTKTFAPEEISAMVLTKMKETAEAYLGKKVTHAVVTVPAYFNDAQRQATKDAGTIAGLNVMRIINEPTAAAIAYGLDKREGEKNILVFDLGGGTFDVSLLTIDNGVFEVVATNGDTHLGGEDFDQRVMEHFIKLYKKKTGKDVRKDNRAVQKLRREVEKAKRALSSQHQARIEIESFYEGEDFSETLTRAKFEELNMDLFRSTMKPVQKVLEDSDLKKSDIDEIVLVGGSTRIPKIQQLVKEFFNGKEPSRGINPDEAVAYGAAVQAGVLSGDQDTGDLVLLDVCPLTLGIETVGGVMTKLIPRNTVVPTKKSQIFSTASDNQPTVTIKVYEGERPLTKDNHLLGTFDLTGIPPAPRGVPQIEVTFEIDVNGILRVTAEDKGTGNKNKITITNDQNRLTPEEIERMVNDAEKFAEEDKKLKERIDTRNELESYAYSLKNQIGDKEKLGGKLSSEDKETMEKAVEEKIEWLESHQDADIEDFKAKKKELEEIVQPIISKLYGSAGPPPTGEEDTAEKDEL

SMILES | Kd [nM]
CCCCCCCCCCCCCC(=O)OC[C@H](COP(=O)(O)OCC(O)COP(=O)(O)OC[C@@H](COC(=O)CCCCCCCCCCCCC)OC(=O)CCCCCCCCCCCCC)OC(=O)CCCCCCCCCCCCC (some centres unmarked) [CL, 1′,3′-bis[1,2-dimyristoyl-sn-glycero-3-phospho]-glycerol] | 1600 ± 500
CCCCCCCC/C=C\CCCCCCCC(=O)O[C@H](COC(=O)CCCCCCCCCCCCCCC)COP(=O)(O)OC[C@H](N)C(=O)O [POPS] | 3500 ± 800
